In ChEMBL document CHEMBL5247627, “1-Methyl-3-((4-(quinolin-4-yloxy)phenyl)amino)-1H-pyrazole-4-carboxamide derivatives as new rearranged during Transfection (RET) kinase inhibitors capable of suppressing resistant mutants in solvent-front regions” (Eur J Med Chem, 2022):
Calls of active or inactive are those of the source. No cut-off for these calls is given here.

Experiments:
[1] = system: BaF3; details: Mus musculus, dose 100.0 nM, time 4.0 hrs
[2] = system: BaF3; assay: Induction of apoptosis in mouse BaF3 cells harbouring CCDC6-RET G810R assessed as early apoptotic cells measured at 100 nM for 48 hrs by Annexin V-FITC staining based Guava easyCyte flow cytometric analysis (reference value: 6.46 %); type: functional
[3] = system: BaF3; assay: Antiproliferative activity against mouse BaF3 cells expressing rearranged during transfection kinase V804L-KIF5B incubated for 74 to 76 hrs by cell counting kit 8 method
[4] = system: BaF3; details: Mus musculus, dose 100.0 nM, time 4.0 hrs; remark: listed apart in the source
[5] = system: BaF3; assay: Induction of apoptosis in mouse BaF3 cells harbouring CCDC6-RET G810R assessed as viable cells measured at 300 nM for 48 hrs by Annexin V-FITC staining based Guava easyCyte flow cytometric analysis (reference value: 89.5 %); type: functional; details: read-out: Activity
[6] = system: BaF3; assay: Antiproliferative activity against mouse BaF3 cells expressing wildtype rearranged during transfection kinase-KIF5B incubated for 74 to 76 hrs by cell counting kit 8 method
[7] = system: BaF3; details: Mus musculus, dose 100.0 nM, time 4.0 hrs; remark: listed apart in the source
[8] = system: BaF3; assay: Antiproliferative activity against mouse BaF3 cells incubated for 74 to 76 hrs by cell counting kit 8 method; type: functional, cell-based
[9] = Toxicity in CB17-SCID mouse xenografted with BaF3 cells expressing CCDC6-RET G810C assessed as loss of body weight measured at 10 to 30 mg/kg, ip qd administered for 12 days measured every 2 days; type: organism-based; details: in vivo, 288 h, dose 10-30 mg/kg, time 12 day
[10] = Toxicity in CB17-SCID mouse xenografted with BaF3 cells expressing CCDC6-RET G810C assessed as tolerability measured at 10 to 30 mg/kg, ip qd administered for 12 days; type: organism-based; details: in vivo, 288 h, dose 10-30 mg/kg, time 12 day
[11] = system: BaF3; assay: Antiproliferative activity against mouse BaF3 cells expressing rearranged during transfection kinase G810C-CCDC6 incubated for 74 to 76 hrs by cell counting kit 8 method
[12] = system: BaF3; assay: Induction of apoptosis in mouse BaF3 cells harbouring CCDC6-RET G810C assessed as early apoptotic cells measured at 300 nM for 48 hrs by Annexin V-FITC staining based Guava easyCyte flow cytometric analysis (reference value: 6.10 %); type: functional
[13] = system: BaF3; assay: Induction of apoptosis in mouse BaF3 cells harbouring CCDC6-RET G810C assessed as viable cells measured at 300 nM for 48 hrs by Annexin V-FITC staining based Guava easyCyte flow cytometric analysis (reference value: 90.90 %); type: functional; details: read-out: Activity
[14] = system: BaF3; assay: Antiproliferative activity against mouse BaF3 cells expressing rearranged during transfection kinase V804L-G810R incubated for 74 to 76 hrs by cell counting kit 8 method
[15] = system: BaF3; details: Mus musculus, dose <= 100.0 nM, time 4.0 hrs
[16] = system: BaF3; assay: Antiproliferative activity against mouse BaF3 cells expressing rearranged during transfection kinase G810R-CCDC6 incubated for 74 to 76 hrs by cell counting kit 8 method
[17] = system: BaF3; assay: Induction of apoptosis in mouse BaF3 cells harbouring CCDC6-RET G810R assessed as necrotic cells measured at 300 nM for 48 hrs by Annexin V-FITC staining based Guava easyCyte flow cytometric analysis (reference value: 0.64 %); type: functional
[18] = system: BaF3; assay: Induction of apoptosis in mouse BaF3 cells harbouring CCDC6-RET G810C assessed as late apoptotic cells measured at 33.3 nM for 48 hrs by Annexin V-FITC staining based Guava easyCyte flow cytometric analysis (reference value: 2.65 %); type: functional
[19] = system: BaF3; assay: Induction of apoptosis in mouse BaF3 cells harbouring CCDC6-RET G810C assessed as necrotic cells measured at 33.3 nM for 48 hrs by Annexin V-FITC staining based Guava easyCyte flow cytometric analysis (reference value: 0.35 %); type: functional
[20] = system: BaF3; assay: Induction of apoptosis in mouse BaF3 cells harbouring CCDC6-RET G810R assessed as early apoptotic cells measured at 33.3 nM for 48 hrs by Annexin V-FITC staining based Guava easyCyte flow cytometric analysis (reference value: 6.46 %); type: functional
[21] = system: BaF3; assay: Induction of apoptosis in mouse BaF3 cells harbouring CCDC6-RET G810C assessed as necrotic cells measured at 300 nM for 48 hrs by Annexin V-FITC staining based Guava easyCyte flow cytometric analysis (reference value: 0.35 %); type: functional
[22] = system: BaF3; assay: Induction of apoptosis in mouse BaF3 cells harbouring CCDC6-RET G810C assessed as necrotic cells measured at 100 nM for 48 hrs by Annexin V-FITC staining based Guava easyCyte flow cytometric analysis (reference value: 0.35 %); type: functional
[23] = system: BaF3; assay: Antiproliferative activity against mouse BaF3 cells expressing rearranged during transfection kinase V804M-KIF5B incubated for 74 to 76 hrs by cell counting kit 8 method
[24] = system: BaF3; assay: Antitumor activity against mouse BaF3 cells harbouring CCDC6-RET G810C cells xenografted in CB17-SCID mouse assessed as reduction in tumor growth at 10 mg/kg ip qd administered for 12 days measured every 2 days relative to control; type: functional; details: BaF3, 288 h, time 12 day, read-out: TGI
[25] = system: BaF3; details: Mus musculus, CB17-SCID, Tumor/tissue, dose 10-30 mg/kg, route ip, time 13.0 day
[26] = system: BaF3; assay: Induction of apoptosis in mouse BaF3 cells harbouring CCDC6-RET G810C assessed as early apoptotic cells measured at 33.3 nM for 48 hrs by Annexin V-FITC staining based Guava easyCyte flow cytometric analysis (reference value: 6.10 %); type: functional
[27] = system: BaF3; assay: Induction of apoptosis in mouse BaF3 cells harbouring CCDC6-RET G810R assessed as viable cells measured at 33.3 nM for 48 hrs by Annexin V-FITC staining based Guava easyCyte flow cytometric analysis (reference value: 89.5 %); type: functional; details: read-out: Activity
[28] = system: BaF3; assay: Antiproliferative activity against mouse BaF3 cells expressing rearranged during transfection kinase V804M-CCDC6 incubated for 74 to 76 hrs by cell counting kit 8 method
[29] = system: BaF3; assay: Antitumor activity against mouse BaF3 cells harbouring CCDC6-RET G810C cells xenografted in CB17-SCID mouse assessed as reduction in tumor growth at 30 mg/kg ip qd administered for 12 days measured every 2 days relative to control; type: functional; details: BaF3, 288 h, time 12 day, read-out: TGI
[30] = system: BaF3; assay: Induction of apoptosis in mouse BaF3 cells harbouring CCDC6-RET G810R assessed as viable cells measured at 100 nM for 48 hrs by Annexin V-FITC staining based Guava easyCyte flow cytometric analysis (reference value: 89.5 %); type: functional; details: read-out: Activity
[31] = system: BaF3; assay: Induction of apoptosis in mouse BaF3 cells harbouring CCDC6-RET G810C assessed as viable cells measured at 33.3 nM for 48 hrs by Annexin V-FITC staining based Guava easyCyte flow cytometric analysis (reference value: 90.90 %); type: functional; details: read-out: Activity
[32] = system: BaF3; assay: Induction of apoptosis in mouse BaF3 cells harbouring CCDC6-RET G810R assessed as necrotic cells measured at 33.3 nM for 48 hrs by Annexin V-FITC staining based Guava easyCyte flow cytometric analysis (reference value: 0.64 %); type: functional

Compound: COc1cc2nccc(Oc3ccc(Nc4nn(C)cc4C(=O)NC45CC6CC(CC(C6)C4)C5)c(F)c3)c2cc1C(N)=O
- inhibition [1]: Active
- Activity [2]: 9.4%
- IC50 [3]: 0.0473 µM
- inhibition [4]: Active
- viability at 0.3 µM [5]: 63.9%
- IC50 [6]: 0.0061 µM
- inhibition [7]: Active
- IC50 [8]: > 10 µM
- Activity [9]: Non-Toxic
- Activity [10]: Non-Toxic
- IC50 [11]: 0.0154 µM
- Activity [12]: 53.4%
- viability at 0.3 µM [13]: 43.1%
- IC50 [14]: 0.12 µM
- inhibition [15]: Dose-Dependent Effect
- IC50 [16]: 0.0532 µM
- Activity [17]: 0.24%
- Activity [18]: 1.5%
- Activity [19]: 0.28%
- Activity [20]: 6.47%
- Activity [21]: 0.41%
- Activity [22]: 0.25%
- IC50 [23]: 0.0531 µM
- inhibition in vivo at 10 mg/kg [24]: 17.1%
- inhibition [25]: Active
- Activity [26]: 7.39%
- viability at 0.0333 µM [27]: 91.1%
- IC50 [28]: 0.0244 µM
- inhibition in vivo at 30 mg/kg [29]: 66.9%
- viability at 0.1 µM [30]: 88.6%
- viability at 0.0333 µM [31]: 90.8%
- Activity [32]: 0.17%
